In PMC6635573, “A live cell NanoBRET binding assay allows the study of ligand-binding kinetics to the adenosine A3 receptor” (Purinergic Signalling, 2019):

Legend:
human A3AR [1] = target: T1, human A3AR (Homo sapiens, UniProt P0DMS8); test: [3H]PSB-11 radioligand equilibrium displacement in Nluc-A3AR HEK293 membranes; assay type: binding; set-up: expressed in transfected cells; conditions: read-out: Equilibrium competition pKi (converted)
T1 sequence (P0DMS8 1-318): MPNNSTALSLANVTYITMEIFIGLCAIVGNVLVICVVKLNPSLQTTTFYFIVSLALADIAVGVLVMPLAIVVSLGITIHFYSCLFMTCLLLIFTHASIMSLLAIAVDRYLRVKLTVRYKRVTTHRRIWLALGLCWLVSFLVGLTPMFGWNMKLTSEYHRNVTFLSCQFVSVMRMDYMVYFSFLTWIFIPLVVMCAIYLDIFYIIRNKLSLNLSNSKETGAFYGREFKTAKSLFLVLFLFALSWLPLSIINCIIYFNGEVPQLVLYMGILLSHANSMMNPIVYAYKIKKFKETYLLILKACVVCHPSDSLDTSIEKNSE
Description: Prior to all experiments, membranes from HEK293 membranes expressing human Nluc-A3AR were diluted to 20 μg/well in a total volume of 100 μL/well assay buffer (50 mM Tris-HCl, 5 mM MgCl2, supplemented with 0.01% CHAPS and 1 mM EDTA, pH 7.4) and homogenised using an IKA T10 Ultra-Turrax disperser in 3 × 5 s bursts at 15,000 rpm. For equilibrium displacement assays, membranes were placed in 96-well microplates at 10 °C and the required concentration of competing agonist was added in the presence of a final concentration of ~ 10 nM [^3H] […] For all experiments, incubation was terminated by rapid filtration performed on 96-well GF/B filter plates using a PerkinElmer Filtermate-harvester (PerkinElmer, Groningen, The Netherlands). […] In addition, the exact concentration of [^3H]

human A3AR [2] = target: T1, human A3AR; test: [3H]PSB-11 radioligand competition association (Motulsky and Mahan) in Nluc-A3AR HEK293 membranes; assay type: binding; set-up: expressed in transfected cells; conditions: for Kd: read-out: Kinetics pKD (converted)
Description: (§1) Prior to all experiments, membranes from HEK293 membranes expressing human Nluc-A3AR were diluted to 20 μg/well in a total volume of 100 μL/well assay buffer (50 mM Tris-HCl, 5 mM MgCl2, supplemented with 0.01% CHAPS and 1 mM EDTA, pH 7.4) and homogenised using an IKA T10 Ultra-Turrax disperser in 3 × 5 s bursts at 15,000 rpm. For equilibrium displacement assays, membranes were placed in 96-well microplates at 10 °C and the required concentration of competing agonist was added in the presence of a final concentration of ~ 10 nM [^3H] […] For association assays, Nluc-A3AR HEK293 membranes were placed at 10 °C in 96-well microplates and the amount of radioligand bound to the receptor was measured at different time points during a total incubation of 120 min. For dissociation experiments, HEK293 membranes expressing human Nluc-A3AR were incubated for 120 min with ~ 10 nM [^3H] […] The competition association assays were initiated by the addition of Nluc-A3AR HEK293 membranes at different time points for a total of 240 min to a total volume of 100 μl/well of assay buffer at 10 °C with ~ 10 nM [^3H] […] For all experiments, incubation was terminated by rapid filtration performed on 96-well GF/B filter plates using a PerkinElmer Filtermate-harvester (PerkinElmer, Groningen, The Netherlands). After drying the filter plate at 50 °C for 30 min, the filter-bound radioactivity was determined by scintillation spectrometry using a 2450 MicroBeta^2 Plate Counter (PerkinElmer, Boston, MA). In addition, the exact concentration of [^3H]
(§2) The binding kinetics of unlabelled ligands was quantified using the competition association assay based on the theoretical framework by Motulsky and Mahan. NanoBRET and radioligand data were fitted into the competition association model using ‘kinetics of competitive binding’ to determine association and dissociation rate constants of the unlabelled compounds:
KA=k1L⋅10^−9+k2KB=k3I⋅10^−9+k4S=KA−KB^2+4⋅k1⋅k3⋅L⋅I⋅10^−18KF=0.5KA+KB+SKS=0.5KA+KB−SQ=Bmax⋅k1⋅L⋅10^−9/KF−KSY=Q⋅k4⋅KF−KS/KF⋅KS+k4−KF/KFe^−KF⋅X−k4−KS/KSe^−KS⋅X where k1 is the kon of the labelled ligand (M^−1 min^−1), k2 is the koff of the labelled ligand (min^−1), L is the concentration of the labelled ligand in nanomolar, I is the concentration of the unlabelled competitor (nM), X is the time (min) and Y is the specific binding of the labelled ligand (NanoBRET ratio or DPM).
(§3) k1 and k2 values were generated from association kinetic experiments. k3, k4 and Bmax were then calculated, where k3 represents the kon (M^−1 min^−1) of the unlabelled ligand, k4 stands for the koff (min^−1) of the unlabelled ligand and Bmax equals the total binding (NanoBRET ratio or DPM). The residence time (RT) was calculated as the reciprocal of the ligand dissociation rate constant as follows: RT=1/koff
This was borne out in the kinetics parameters obtained from fitting the data to the Motulsky and Mahan model (Table 2).

human A3AR [3] = target: T1, human A3AR; test: NanoBRET association kinetics of fluorescent antagonists in live Nluc-A3AR HEK293 cells; conditions: for residence time: read-out: Kinetics RT (residence time); for koff: read-out: Kinetics koff; for kon: read-out: Kinetics kon
Description: (§4) For saturation and competition binding assays, the required concentration of fluorescent ligand and competing ligand was added simultaneously and incubated for 1 h (for AV039) or 3 h (for XAC-S-ser-S-tyr-X-BY630) at 37 °C (no CO2). After 1 h, 10 μM furimazine was added to each well and the plate incubated for 5 min at 37 °C before reading. […] For association kinetic experiments, following the furimazine incubation, the required concentration of fluorescent ligand in the presence or absence of 10 μM MRS1220 was added simultaneously and the plate read immediately once per minute for up to 3 h at 37 °C. For kinetic competition association assays, after furimazine incubation, either XAC-S-ser-S-tyr-X-BY630 (20 nM) or AV039 (40 nM) were added simultaneously with the required concentration of unlabelled ligand or 10 μM MRS1220 to determine non-specific binding and read once per minute for the indicated times at 37 °C. For all NanoBRET experiments, fluorescence and luminescence were read using a PHERAstar FS plate reader (BMG Labtech, Ortenberg, Germany). Filtered light emissions were measured at 460 nm (80 nm band pass) and at > 610 nm (long pass) for the BY630 labelled ligands and at 450 nm (80 nm band pass) and > 550 nm (long pass) for the BYFL labelled ligand. The raw NanoBRET ratio was calculated by dividing the fluorescence emission (610 or 550 nm) by the luminescence emission (460 or 450 nm).
For NanoBRET association kinetic data, non-specific binding was determined in wells with fluorescent ligand plus 10 μM MRS1220 and this was obtained for each concentration of fluorescent ligand at each time point. This was subsequently subtracted from total binding at the equivalent time point. The data were simultaneously fit to the following equations: Y=Ymax1−e^−kobst kon=kobs−koff/L where Ymax equals the level of binding at infinite time (t), kobs is the rate constant for the observed rate of association at a particular concentration of L, [L] is the ligand concentration in molar, koff is the dissociation rate constant of the ligand in per minute and kon is the association rate constant in per molar per minute. From this, the equilibrium dissociation constant (KD) is determined as follows: KD=koff/kon

human A3AR [4] = target: T1, human A3AR; test: NanoBRET saturation binding of fluorescent antagonists in live Nluc-A3AR HEK293 cells
Description: as §4
NanoBRET total and non-specific saturation binding curves were fitted simultaneously using the following equation: BRET ratio=Bmax.B/B+KD+M.B+C where Bmax is the maximal specific binding achieved, [B] is the concentration of fluorescent ligand, KD is the equilibrium dissociation constant, M is the slope of the non-specific binding component and C is the intercept with the Y-axis.
Initially, we determined the affinity of each of these fluorescent antagonists at NanoLuc tagged A3AR (Nluc-A3AR) in the NanoBRET assay.

human A3AR [5] = target: T1, human A3AR; test: NanoBRET equilibrium competition binding with XAC-S-ser-S-tyr-X-BY630 as probe in Nluc-A3AR HEK293 cells; set-up: expressed in transfected cells
human A3AR [6] = target: T1, human A3AR; test: NanoBRET kinetic competition association with AV039 as probe in Nluc-A3AR HEK293 cells; assay type: binding; set-up: expressed in transfected cells; conditions: for Kd: read-out: Kinetics pKD (probe AV039) (converted); for Kinetics RT (probe AV039): reciprocal of koff, NanoBRET competition association with 40 nM AV039, cells
Description: as §2, §3

human A3AR [7] = target: T1, human A3AR; test: NanoBRET equilibrium competition binding with AV039 as probe in Nluc-A3AR HEK293 cells
Description: For saturation and competition binding assays, the required concentration of fluorescent ligand and competing ligand was added simultaneously and incubated for 1 h (for AV039) or 3 h (for XAC-S-ser-S-tyr-X-BY630) at 37 °C (no CO2). After 1 h, 10 μM furimazine was added to each well and the plate incubated for 5 min at 37 °C before reading. […] For association kinetic experiments, following the furimazine incubation, the required concentration of fluorescent ligand in the presence or absence of 10 μM MRS1220 was added simultaneously and the plate read immediately once per minute for up to 3 h at 37 °C. For kinetic competition association assays, after furimazine incubation, either XAC-S-ser-S-tyr-X-BY630 (20 nM) or AV039 (40 nM) were added simultaneously with the required concentration of unlabelled ligand or 10 μM MRS1220 to determine non-specific binding and read once per minute for the indicated times at 37 °C. For all NanoBRET experiments, fluorescence and luminescence were read using a PHERAstar FS plate reader (BMG Labtech, Ortenberg, Germany). Filtered light emissions were measured at 460 nm (80 nm band pass) and at > 610 nm (long pass) for the BY630 labelled ligands and at 450 nm (80 nm band pass) and > 550 nm (long pass) for the BYFL labelled ligand. […]

human A3AR [8] = target: T1, human A3AR; test: NanoBRET kinetic competition association with XAC-S-ser-S-tyr-X-BY630 as probe in Nluc-A3AR HEK293 cells; assay type: binding; set-up: expressed in transfected cells; conditions: for Kinetics RT (probe XAC-S-ser-S-tyr-X-BY630): reciprocal of koff, NanoBRET competition association with 20 nM XAC-S-ser-S-tyr-X-BY630, cells
Description: as §2
The residence time (RT) was calculated as the reciprocal of the ligand dissociation rate constant as follows: RT=1/koff

human A3AR [9] = target: T1, human A3AR; test: [3H]PSB-11 radioligand association and dissociation in Nluc-A3AR HEK293 membranes; assay type: binding; set-up: expressed in transfected cells; conditions: 10 °C
Description: as §1
To confirm the differences in the kinetics observed with AV039 and XAC-S-ser-S-tyr-X-BY630, radioligand equilibrium and kinetic binding assays in membranes from HEK293 cells stably expressing Nluc-A3AR were undertaken.

human A3AR [10] = target: T1, human A3AR; test: [3H]PSB-11 saturation binding (KD used for the Ki calculation); set-up: expressed in transfected cells; conditions: radioligand, saturation binding assay of this study, read-out: KD, equilibrium dissociation constant of the labelled ligand
[11] = read-out: Kinetics koff (converted)
[12] = read-out: Kinetics kon (converted)
[13] = NanoBRET competition association with 40 nM AV039, Nluc-A3AR HEK293 cells, 37 °C
[14] = association and dissociation curves of 10 nM [3H]PSB-11, Nluc-A3AR HEK293 membranes

Molecule | Ki (human A3AR [1]) [nM] | koff (human A3AR [2]; [11]) [s⁻¹] | kon (human A3AR [2]; [12]) [M⁻¹ s⁻¹] | Kd (human A3AR [2]) [nM] | Kd (human A3AR [3]) [nM] | residence time (human A3AR [3]) [min] | koff (human A3AR [3]) [s⁻¹] | kon (human A3AR [3]) [M⁻¹ s⁻¹] | Kd (human A3AR [4]) [nM] | Kinetics RT (probe AV039) (human A3AR [6]; 37 °C) [min] | Kinetics RT (probe XAC-S-ser-S-tyr-X-BY630) (human A3AR [8]; 37 °C) [min] | also measured
COc1ccc(-n2nc3c(NC(=O)CCC(=O)NCCOCCOCCNC(=O)CCCCCNC(=O)COc4ccc(/C=C/C5=[N+]6C(=Cc7ccc(-c8cccs8)n7[B-]6(F)F)C=C5)cc4)nc4ccccc4n3c2=O)cc1 [AV039] | 22.4 | 0.00127 | 54500 | 23.4 | 44.7 | 6.8 ± 0.8 | 0.0025 | 61200 | 7.76 | – | – | –
COc1cccc(Cn2c(=O)n(CC3CC3)c(=O)c3c2nc2cc(OC)ccn23)c1 [LUF7565] | 1.02 | – | – | 0.776 | – | – | – | – | – | 72.9 ± 8.3 | 49.2 ± 6.7 | Ki (human A3AR [5]): 100 nM; koff (human A3AR [2]; read-out: Kinetics koff): 0.000108 s⁻¹; kon (human A3AR [2]; read-out: Kinetics kon): 136000 M⁻¹ s⁻¹; Kd (human A3AR [6]; [13]): 6.76 nM; koff (human A3AR [6]; read-out: Kinetics koff (probe AV039)): 0.00025 s⁻¹; kon (human A3AR [6]; read-out: Kinetics kon (probe AV039)): 44700 M⁻¹ s⁻¹; Ki (human A3AR [7]): 11.7 nM; Kd (human A3AR [8]): 13.5 nM; koff (human A3AR [8]; NanoBRET competition association with 20 nM XAC-S-ser-S-tyr-X-BY630, Nluc-A3AR HEK293 cells, 37 °C, read-out: Kinetics koff (probe XAC-S-ser-S-tyr-X-BY630) (converted)): 0.000367 s⁻¹; kon (human A3AR [8]; NanoBRET competition association with 20 nM XAC-S-ser-S-tyr-X-BY630, Nluc-A3AR HEK293 cells, 37 °C, read-out: Kinetics kon (probe XAC-S-ser-S-tyr-X-BY630) (converted)): 26800 M⁻¹ s⁻¹
CC[C@@H]1CN2C(=O)N(C)c3nc(-c4ccccc4)[nH]c3C2=N1 [PSB-11] | – | – | – | – | – | – | – | – | – | 6.6 ± 1.3 | 22.4 ± 6.1 | –
CCCn1c(=O)c2[nH]c(-c3ccc(OCC(=O)NCCNC(=O)[C@H](CO)NC(=O)[C@H](Cc4ccc(O)cc4)NC(=O)CCCCCNC(=O)COc4ccc(/C=C/C5=[N+]6C(=Cc7ccc(-c8cccs8)n7[B-]6(F)F)C=C5)cc4)cc3)nc2n(CCC)c1=O [XAC-S-ser-S-tyr-X-BY630] | 61.7 | 3.83e-05 | 2330 | 18.2 | 2.69 | 288 ± 62 | 7.17e-05 | 27700 | 3.09 | – | – | residence time (human A3AR [2]; read-out: RT (residence time)): > 450 min
CCCn1c(=O)c2[nH]c(-c3ccc(OCC(=O)NCCNC(=O)[C@H](CO)NC(=O)[C@H](Cc4ccc(O)cc4)NC(=O)CCCCCNC(=O)CCc4ccc5n4[B-](F)(F)[N+]4=C(C)C=C(C)C4=C5)cc3)nc2n(CCC)c1=O [XAC-S-ser-S-tyr-X-BYFL] | – | – | – | – | 17.8 | 14.9 ± 1.1 | 0.00115 | 65800 | 16.6 | – | – | –
COc1ccn2c(c1)nc1c2c(=O)[nH]c(=O)n1Cc1ccccc1 [compound 5, 1-Benzyl-8-methoxy-1H,3H-pyrido[2,1-f]purine-2,4-dione] | 44.7 | 0.0033 | 110000 | 29.5 | – | – | – | – | – | 1.1 ± 0.4 | 23.2 ± 3.6 | Ki (human A3AR [5]): 832 nM; koff (human A3AR [6]; NanoBRET competition association with 40 nM AV039, Nluc-A3AR HEK293 cells, 37 °C, read-out: Kinetics koff (probe AV039) (converted)): 0.0235 s⁻¹; kon (human A3AR [6]; NanoBRET competition association with 40 nM AV039, Nluc-A3AR HEK293 cells, 37 °C, read-out: Kinetics kon (probe AV039) (converted)): 183000 M⁻¹ s⁻¹; Kd (human A3AR [6]; [13]): 123 nM; Ki (human A3AR [7]): 89.1 nM; Kd (human A3AR [8]): 288 nM; koff (human A3AR [8]; read-out: Kinetics koff (probe XAC-S-ser-S-tyr-X-BY630)): 0.000783 s⁻¹; kon (human A3AR [8]; read-out: Kinetics kon (probe XAC-S-ser-S-tyr-X-BY630)): 2670 M⁻¹ s⁻¹
[^3H]8-Ethyl-4-methyl-2-phenyl-(8R)-4,5,7,8-tetrahydro-1H-imidazo[2,1-i]-purin-5-one [[^3H]PSB-11] | – | – | – | – | – | – | – | – | – | – | – | Kinetics kon (human A3AR [9]; [14]): 2.75 ± 0.52 × 10^6 M^−1 min^−1; Kinetics pKD (human A3AR [9]; [14]): 8.04 ± 0.08; Kinetics koff (human A3AR [9]; association and dissociation curves of 10 nM [3H]PSB-11, dissociation initiated with 10 μM PSB-11, membranes): 0.023 ± 0.002 min⁻¹; Kinetics RT (residence time) (human A3AR [9]; reciprocal of koff, 10 nM [3H]PSB-11, Nluc-A3AR HEK293 membranes): 44.6 ± 3.9 min; Kd (human A3AR [10]): 9.9 nM
